According to ChEMBL document CHEMBL4507266, “Data for DCP probe BAY-784” (2021):

Tests used:
[1] = target: Aurora kinase A (Homo sapiens) (UniProt O14965); settings: Compound concentration 1000.0 nM
[2] = target: Serine/threonine-protein kinase MRCK alpha (Homo sapiens) (UniProt Q5VT25); settings: Compound concentration 1000.0 nM
[3] = target: Tyrosine-protein kinase Fgr (Homo sapiens) (UniProt P09769); settings: Compound concentration 1000.0 nM
[4] = target: Myosin light chain kinase, smooth muscle (Homo sapiens) (UniProt Q15746); settings: Compound concentration 1000.0 nM
[5] = target: Serine/threonine-protein kinase SIK3 (Homo sapiens) (UniProt Q9Y2K2); settings: Compound concentration 1000.0 nM
[6] = target: Beta-adrenergic receptor kinase 1 (Homo sapiens) (UniProt P25098); settings: Compound concentration 1000.0 nM
Beta-adrenergic receptor kinase 1 (Homo sapiens), sequence (P25098 whole entry, canonical isoform): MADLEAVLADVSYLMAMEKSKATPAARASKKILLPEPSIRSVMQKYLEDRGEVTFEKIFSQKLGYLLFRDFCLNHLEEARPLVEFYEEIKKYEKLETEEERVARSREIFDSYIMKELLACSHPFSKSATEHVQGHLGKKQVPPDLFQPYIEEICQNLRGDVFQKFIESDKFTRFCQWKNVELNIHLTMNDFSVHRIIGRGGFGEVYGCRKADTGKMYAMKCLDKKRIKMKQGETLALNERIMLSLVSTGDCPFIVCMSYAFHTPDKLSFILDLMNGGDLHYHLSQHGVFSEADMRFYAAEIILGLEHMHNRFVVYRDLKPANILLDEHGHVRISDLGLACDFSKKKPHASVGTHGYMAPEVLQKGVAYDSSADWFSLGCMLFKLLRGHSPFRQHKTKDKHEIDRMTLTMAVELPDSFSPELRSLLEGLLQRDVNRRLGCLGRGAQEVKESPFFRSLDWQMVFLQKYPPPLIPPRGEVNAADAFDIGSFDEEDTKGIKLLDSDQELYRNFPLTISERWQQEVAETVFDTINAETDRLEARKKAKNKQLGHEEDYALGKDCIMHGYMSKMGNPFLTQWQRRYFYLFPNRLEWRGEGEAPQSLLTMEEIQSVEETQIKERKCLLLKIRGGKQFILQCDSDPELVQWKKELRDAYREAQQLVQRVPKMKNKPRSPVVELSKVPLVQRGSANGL

[7] = target: Casein kinase I isoform alpha (Homo sapiens) (UniProt P48729); settings: Compound concentration 1000.0 nM
[8] = target: Serine/threonine-protein kinase 32B (Homo sapiens) (UniProt Q9NY57); settings: Compound concentration 1000.0 nM
Serine/threonine-protein kinase 32B (Homo sapiens), sequence (Q9NY57 whole entry): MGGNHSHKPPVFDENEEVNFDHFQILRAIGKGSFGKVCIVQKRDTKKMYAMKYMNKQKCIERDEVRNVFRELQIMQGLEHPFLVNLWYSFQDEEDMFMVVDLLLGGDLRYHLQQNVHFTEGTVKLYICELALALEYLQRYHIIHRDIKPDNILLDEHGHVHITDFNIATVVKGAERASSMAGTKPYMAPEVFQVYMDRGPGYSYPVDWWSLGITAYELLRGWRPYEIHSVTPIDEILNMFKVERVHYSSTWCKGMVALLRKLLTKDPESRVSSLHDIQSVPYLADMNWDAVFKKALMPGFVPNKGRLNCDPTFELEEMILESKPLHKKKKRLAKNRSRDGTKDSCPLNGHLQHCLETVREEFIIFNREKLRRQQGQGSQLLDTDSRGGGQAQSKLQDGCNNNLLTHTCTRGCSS

[9] = target: Cytoplasmic tyrosine-protein kinase BMX (Homo sapiens) (UniProt P51813); settings: Compound concentration 1000.0 nM
Cytoplasmic tyrosine-protein kinase BMX (Homo sapiens), sequence (P51813 whole entry): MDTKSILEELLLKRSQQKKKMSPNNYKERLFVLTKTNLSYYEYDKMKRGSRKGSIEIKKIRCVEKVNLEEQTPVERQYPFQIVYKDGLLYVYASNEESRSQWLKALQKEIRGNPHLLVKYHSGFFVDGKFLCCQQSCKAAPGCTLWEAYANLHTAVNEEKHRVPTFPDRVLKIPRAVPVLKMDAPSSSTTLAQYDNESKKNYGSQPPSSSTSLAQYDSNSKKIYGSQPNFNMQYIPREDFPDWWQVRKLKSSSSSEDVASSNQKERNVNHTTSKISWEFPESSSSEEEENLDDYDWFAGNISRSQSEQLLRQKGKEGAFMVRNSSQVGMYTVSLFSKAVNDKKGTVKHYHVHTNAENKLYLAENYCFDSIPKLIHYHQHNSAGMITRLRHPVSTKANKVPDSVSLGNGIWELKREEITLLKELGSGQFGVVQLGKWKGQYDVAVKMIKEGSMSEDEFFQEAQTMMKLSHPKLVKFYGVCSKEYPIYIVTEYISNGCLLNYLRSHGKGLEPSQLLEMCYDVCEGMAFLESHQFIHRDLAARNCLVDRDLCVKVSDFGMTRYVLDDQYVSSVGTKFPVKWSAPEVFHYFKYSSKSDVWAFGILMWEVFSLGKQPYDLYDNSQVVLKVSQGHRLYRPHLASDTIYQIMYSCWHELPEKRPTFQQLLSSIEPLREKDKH

[10] = tested on: Fibroblast growth factor receptor 3 (Homo sapiens), P22607 [G697C]; settings: Compound concentration 1000.0 nM
[11] = target: Cyclin-dependent kinase 15 (Homo sapiens) (UniProt Q96Q40); settings: Compound concentration 1000.0 nM
[12] = tested on: Mast/stem cell growth factor receptor Kit (Homo sapiens), P10721 [L576P]; settings: Compound concentration 1000.0 nM
[13] = target: T1, 5-hydroxytryptamine receptor 3A (Homo sapiens) (UniProt P46098); settings: Compound concentration 10.0 uM
T1 sequence (whole entry): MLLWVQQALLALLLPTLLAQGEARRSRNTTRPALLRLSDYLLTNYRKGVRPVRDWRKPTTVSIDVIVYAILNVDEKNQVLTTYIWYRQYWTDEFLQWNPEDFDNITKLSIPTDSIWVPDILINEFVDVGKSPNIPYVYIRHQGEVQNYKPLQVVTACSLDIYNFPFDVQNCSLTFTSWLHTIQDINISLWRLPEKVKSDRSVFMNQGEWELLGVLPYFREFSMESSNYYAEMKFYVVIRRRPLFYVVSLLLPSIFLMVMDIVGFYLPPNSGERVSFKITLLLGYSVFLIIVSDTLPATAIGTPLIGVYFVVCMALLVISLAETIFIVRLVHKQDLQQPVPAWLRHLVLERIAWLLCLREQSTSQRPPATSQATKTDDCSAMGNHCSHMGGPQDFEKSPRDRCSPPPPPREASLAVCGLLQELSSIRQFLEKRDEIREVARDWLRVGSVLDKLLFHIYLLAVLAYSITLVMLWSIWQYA

[14] = target: RAC-gamma serine/threonine-protein kinase (Homo sapiens) (UniProt Q9Y243); settings: Compound concentration 1000.0 nM
RAC-gamma serine/threonine-protein kinase (Homo sapiens), sequence (Q9Y243 whole entry): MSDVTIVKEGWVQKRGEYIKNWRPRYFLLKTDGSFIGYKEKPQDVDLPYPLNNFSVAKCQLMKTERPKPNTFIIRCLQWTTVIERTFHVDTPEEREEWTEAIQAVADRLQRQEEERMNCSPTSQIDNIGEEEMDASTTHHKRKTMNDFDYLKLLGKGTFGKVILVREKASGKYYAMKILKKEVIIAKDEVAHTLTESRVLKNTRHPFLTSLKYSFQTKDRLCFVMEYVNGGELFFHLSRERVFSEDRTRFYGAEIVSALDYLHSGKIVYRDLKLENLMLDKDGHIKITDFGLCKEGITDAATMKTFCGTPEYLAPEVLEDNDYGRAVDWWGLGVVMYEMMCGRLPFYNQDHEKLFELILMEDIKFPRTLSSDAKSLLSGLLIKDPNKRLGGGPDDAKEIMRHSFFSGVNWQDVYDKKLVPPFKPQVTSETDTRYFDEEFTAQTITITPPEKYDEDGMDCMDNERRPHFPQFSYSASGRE

[15] = target: SRSF protein kinase 1 (Homo sapiens) (UniProt Q96SB4); settings: Compound concentration 1000.0 nM
[16] = target: Protein kinase C iota type (Homo sapiens) (UniProt P41743); settings: Compound concentration 1000.0 nM
[17] = target: Misshapen-like kinase 1 (Homo sapiens) (UniProt Q8N4C8); settings: Compound concentration 1000.0 nM
[18] = target: Cyclin-dependent kinase-like 2 (Homo sapiens) (UniProt Q92772); settings: Compound concentration 1000.0 nM
[19] = target: Myosin light chain kinase 2, skeletal/cardiac muscle (Homo sapiens) (UniProt Q9H1R3); settings: Compound concentration 1000.0 nM
Myosin light chain kinase 2, skeletal/cardiac muscle (Homo sapiens), sequence (Q9H1R3 whole entry): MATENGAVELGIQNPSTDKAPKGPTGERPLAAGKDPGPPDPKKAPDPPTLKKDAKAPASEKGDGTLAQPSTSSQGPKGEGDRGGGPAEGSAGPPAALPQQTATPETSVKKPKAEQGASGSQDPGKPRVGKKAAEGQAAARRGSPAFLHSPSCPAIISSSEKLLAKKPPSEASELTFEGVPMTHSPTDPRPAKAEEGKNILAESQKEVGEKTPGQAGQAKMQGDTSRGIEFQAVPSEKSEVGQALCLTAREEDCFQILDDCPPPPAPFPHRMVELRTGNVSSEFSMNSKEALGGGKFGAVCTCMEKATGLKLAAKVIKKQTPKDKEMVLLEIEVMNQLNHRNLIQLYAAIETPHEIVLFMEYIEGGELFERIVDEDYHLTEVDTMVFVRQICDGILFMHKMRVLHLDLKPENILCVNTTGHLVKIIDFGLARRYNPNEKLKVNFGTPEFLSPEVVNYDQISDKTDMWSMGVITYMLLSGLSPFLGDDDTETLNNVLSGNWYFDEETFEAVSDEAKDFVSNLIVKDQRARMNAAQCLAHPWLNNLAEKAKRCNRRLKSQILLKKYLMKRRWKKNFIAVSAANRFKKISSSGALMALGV

[20] = tested on: Mast/stem cell growth factor receptor Kit (Homo sapiens), P10721 [D816V]; settings: Compound concentration 1000.0 nM
Mast/stem cell growth factor receptor Kit (Homo sapiens), P10721 [D816V], sequence (P10721 whole entry D816V): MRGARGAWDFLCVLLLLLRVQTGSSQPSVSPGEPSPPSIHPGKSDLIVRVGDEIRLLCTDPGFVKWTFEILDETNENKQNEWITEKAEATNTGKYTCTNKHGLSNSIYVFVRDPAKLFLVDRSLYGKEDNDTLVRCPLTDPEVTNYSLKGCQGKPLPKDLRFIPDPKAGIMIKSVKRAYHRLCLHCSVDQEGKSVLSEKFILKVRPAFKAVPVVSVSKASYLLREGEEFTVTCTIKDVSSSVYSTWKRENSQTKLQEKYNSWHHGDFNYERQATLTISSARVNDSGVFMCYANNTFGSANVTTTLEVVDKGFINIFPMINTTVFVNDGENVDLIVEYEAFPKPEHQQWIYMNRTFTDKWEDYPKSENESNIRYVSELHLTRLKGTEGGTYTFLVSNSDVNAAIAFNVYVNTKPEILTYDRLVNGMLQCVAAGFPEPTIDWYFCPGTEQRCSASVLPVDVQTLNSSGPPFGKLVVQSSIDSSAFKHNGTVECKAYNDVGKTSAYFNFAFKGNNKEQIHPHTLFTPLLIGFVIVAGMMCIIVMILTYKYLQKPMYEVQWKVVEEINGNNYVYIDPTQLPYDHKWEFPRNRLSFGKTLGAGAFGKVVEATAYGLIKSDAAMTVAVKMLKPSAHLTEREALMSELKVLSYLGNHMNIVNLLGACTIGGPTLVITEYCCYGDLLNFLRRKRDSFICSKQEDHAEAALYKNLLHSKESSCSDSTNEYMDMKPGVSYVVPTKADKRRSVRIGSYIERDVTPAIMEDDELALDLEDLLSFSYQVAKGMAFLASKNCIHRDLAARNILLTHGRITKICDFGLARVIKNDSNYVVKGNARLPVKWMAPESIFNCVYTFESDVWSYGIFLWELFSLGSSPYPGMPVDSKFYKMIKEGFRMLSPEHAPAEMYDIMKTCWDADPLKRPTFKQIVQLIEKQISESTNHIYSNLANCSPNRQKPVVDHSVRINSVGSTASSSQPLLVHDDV

[21] = target: Receptor-type tyrosine-protein kinase FLT3 (Homo sapiens) (UniProt P36888); settings: Compound concentration 1000.0 nM
[22] = target: T2, Alpha-2A adrenergic receptor (Homo sapiens) (UniProt P08913); settings: Compound concentration 10.0 uM
T2 sequence (whole entry): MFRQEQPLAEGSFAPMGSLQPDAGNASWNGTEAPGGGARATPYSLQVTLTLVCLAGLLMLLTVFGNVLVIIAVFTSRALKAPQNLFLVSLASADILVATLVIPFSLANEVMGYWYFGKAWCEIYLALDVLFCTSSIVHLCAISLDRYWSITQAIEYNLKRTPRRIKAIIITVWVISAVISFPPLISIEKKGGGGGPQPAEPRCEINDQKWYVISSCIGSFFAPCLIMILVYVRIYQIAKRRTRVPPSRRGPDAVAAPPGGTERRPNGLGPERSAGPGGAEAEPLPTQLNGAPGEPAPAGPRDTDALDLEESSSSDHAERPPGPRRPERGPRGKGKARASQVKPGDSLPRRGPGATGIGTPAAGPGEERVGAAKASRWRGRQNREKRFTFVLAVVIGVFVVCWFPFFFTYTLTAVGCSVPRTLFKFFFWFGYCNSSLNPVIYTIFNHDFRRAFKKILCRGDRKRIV

[23] = target: cGMP-dependent protein kinase 1 (Homo sapiens) (UniProt Q13976); settings: Compound concentration 1000.0 nM
cGMP-dependent protein kinase 1 (Homo sapiens), sequence (Q13976 whole entry): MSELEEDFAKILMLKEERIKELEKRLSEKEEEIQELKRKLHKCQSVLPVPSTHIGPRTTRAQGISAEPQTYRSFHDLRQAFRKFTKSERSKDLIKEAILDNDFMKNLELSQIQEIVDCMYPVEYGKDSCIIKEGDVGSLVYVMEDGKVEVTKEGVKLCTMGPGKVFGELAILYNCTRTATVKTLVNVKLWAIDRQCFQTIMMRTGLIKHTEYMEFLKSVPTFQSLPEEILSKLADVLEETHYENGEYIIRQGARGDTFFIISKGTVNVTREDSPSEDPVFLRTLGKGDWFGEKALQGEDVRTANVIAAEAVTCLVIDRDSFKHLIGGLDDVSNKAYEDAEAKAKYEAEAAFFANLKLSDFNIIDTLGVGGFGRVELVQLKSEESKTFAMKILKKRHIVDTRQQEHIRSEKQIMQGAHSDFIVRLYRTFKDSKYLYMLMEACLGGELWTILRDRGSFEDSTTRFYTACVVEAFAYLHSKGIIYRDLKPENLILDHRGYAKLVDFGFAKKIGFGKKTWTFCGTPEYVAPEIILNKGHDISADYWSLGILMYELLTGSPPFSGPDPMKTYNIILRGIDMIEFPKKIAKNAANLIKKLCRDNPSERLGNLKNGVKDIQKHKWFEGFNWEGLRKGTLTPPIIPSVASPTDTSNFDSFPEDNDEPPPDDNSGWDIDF

[24] = target: Dual specificity tyrosine-phosphorylation-regulated kinase 1A (Homo sapiens) (UniProt Q13627); settings: Compound concentration 1000.0 nM
[25] = target: Mitogen-activated protein kinase 8 (Homo sapiens) (UniProt P45983); settings: Compound concentration 1000.0 nM
[26] = target: Mitogen-activated protein kinase kinase kinase 7 (Homo sapiens) (UniProt O43318); settings: Compound concentration 1000.0 nM
[27] = target: Tyrosine-protein kinase JAK2 (Homo sapiens) (UniProt O60674); settings: Compound concentration 1000.0 nM
[28] = target: Ephrin type-A receptor 8 (Homo sapiens) (UniProt P29322); settings: Compound concentration 1000.0 nM
[29] = target: Ribosomal protein S6 kinase alpha-2 (Homo sapiens) (UniProt Q15349); settings: Compound concentration 1000.0 nM
[30] = target: Cyclin-dependent kinase-like 3 (Homo sapiens) (UniProt Q8IVW4); settings: Compound concentration 1000.0 nM
[31] = target: Beta-3 adrenergic receptor (Homo sapiens) (UniProt P13945); settings: Compound concentration 10.0 uM
[32] = target: Testis-specific serine/threonine-protein kinase 1 (Homo sapiens) (UniProt Q9BXA7); settings: Compound concentration 1000.0 nM
[33] = target: Mitogen-activated protein kinase 6 (Homo sapiens) (UniProt Q16659); settings: Compound concentration 1000.0 nM

Tyrosine-protein kinase Fgr (Homo sapiens), sequence (P09769 2-529 limits assumed): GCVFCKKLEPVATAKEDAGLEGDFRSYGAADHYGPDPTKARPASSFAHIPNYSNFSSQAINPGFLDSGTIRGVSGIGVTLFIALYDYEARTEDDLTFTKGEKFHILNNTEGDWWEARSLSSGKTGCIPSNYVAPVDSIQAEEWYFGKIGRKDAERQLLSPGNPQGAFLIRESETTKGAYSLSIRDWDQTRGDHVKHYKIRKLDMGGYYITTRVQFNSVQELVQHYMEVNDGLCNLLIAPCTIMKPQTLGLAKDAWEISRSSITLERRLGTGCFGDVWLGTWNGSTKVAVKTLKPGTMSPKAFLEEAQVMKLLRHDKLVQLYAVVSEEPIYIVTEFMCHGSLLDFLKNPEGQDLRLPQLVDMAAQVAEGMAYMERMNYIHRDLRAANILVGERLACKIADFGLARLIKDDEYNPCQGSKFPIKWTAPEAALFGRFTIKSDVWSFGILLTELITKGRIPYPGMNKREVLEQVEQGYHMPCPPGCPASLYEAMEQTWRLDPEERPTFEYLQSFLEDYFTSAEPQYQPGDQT

O=C(NCc1ncc(C(F)(F)F)cc1Cl)c1ccc2c(c1)C1(CCS(=O)(=O)CC1)[C@H](C1CC1)N2S(=O)(=O)c1ccc(F)cc1 [BAY-784]
inactive: residual activity [1] 97% | residual activity [2] 100% | residual activity [3] 100% | residual activity [4] 77% | residual activity [5] 100% | residual activity [6] 56% | residual activity [7] 92% | residual activity [8] 100% | residual activity [9] 100% | residual activity [10] 100% | residual activity [11] 100% | residual activity [12] 100% | inhibition [13] 1.44% | residual activity [14] 100% | residual activity [15] 72% | residual activity [16] 81% | residual activity [17] 90% | residual activity [18] 100% | residual activity [19] 100% | residual activity [20] 100% | residual activity [21] 100% | inhibition [22] -5.62% | residual activity [23] 100% | residual activity [24] 88% | residual activity [25] 87% | residual activity [26] 80% | residual activity [27] 80% | residual activity [28] 97% | residual activity [29] 100% | residual activity [30] 100% | inhibition [31] -2.87% | residual activity [32] 100% | residual activity [33] 87%

O=C(NCc1ncc(C(F)(F)F)cc1Cl)c1ccc2c(c1)C1(CCS(=O)(=O)CC1)[C@@H](C1CC1)N2S(=O)(=O)c1ccc(F)cc1 [BAY-786]
inactive: residual activity [1] 81% | residual activity [2] 100% | residual activity [3] 93% | residual activity [4] 74% | residual activity [5] 72% | residual activity [6] 80% | residual activity [7] 81% | residual activity [8] 96% | residual activity [9] 92% | residual activity [10] 80% | residual activity [11] 69% | residual activity [12] 76% | inhibition [13] -1.68% | residual activity [14] 86% | residual activity [15] 96% | residual activity [16] 100% | residual activity [17] 85% | residual activity [18] 100% | residual activity [19] 83% | residual activity [20] 89% | residual activity [21] 100% | inhibition [22] 6.57% | residual activity [23] 100% | residual activity [24] 85% | residual activity [25] 55% | residual activity [26] 63% | residual activity [27] 70% | residual activity [28] 100% | residual activity [29] 93% | residual activity [30] 100% | inhibition [31] -0.77% | residual activity [32] 100% | residual activity [33] 86%
